Assay results reported in publication PMC4603696, “Discovery and characterization of novel small-molecule inhibitors targeting nicotinamide phosphoribosyltransferase” (Scientific Reports, 2015).
Values joined by “and” are separate entries in the source; they are usually repeats but may differ in a detail not shown here. Equal entries are not always repeated. Where two headings read alike, the source gives them in different places.

Experiments:
HepG2 cells [1] = experiment: Sulforhodamine B protein staining (SRB) assay in HepG2; type: cell-based, human; settings: Homo sapiens
Method: (§1) Sulfor hod am ine B p rotei n st ai ning (SRB) assay
(§2) Cell pr oliferat ion was eva lua ted by sul for hod amine B pr ot ein st aini ng (SRB) assa y10-12.
(§3) Briefly, cel ls were se ede d int o 96-well pl ates, cul tur ed overni ght , and trea ted with correspond ing com poun ds for 72 h. Cells were the n fixe d with 10% trichl or oa cetic aci d and st ained with sul for hoda mine B (Sigm a). Sul for hoda mine B in the cells was di sso lved in 10 mmol/L Tris-HCl and was measured at 515 nm usi ng a multiw ell spect ropho tometer (VERSA max, Mol ecul ar Devi ces, Sunnyva le, CA). The inhi bi tion rat e on cell pr olif eratio n was cal culated for each well as (A515contr ol cells-A 515tr eated cells)/A515contr ol cells×100 % (A515:
(§4) OD va lue at 515 nm ). The averag e IC50 va lue s were de termine d by Logit method from at leas t t hr eei nde pe nde nt test s.

NAMPT [2] = molecular target: T1, NAMPT (Homo sapiens, UniProt P43490); experiment: NAMPT activity assay by fluorescence of NMN derivative (HTS system), IC50 determination; type: biochemical; parameters: His-tag; made in house; host or cells: E. coli BL21-CodonPlus (DE3)-RIL; settings: for IC50: recombinant human NAMPT, read-out: NAMPT IC50
T1 sequence (P43490 whole entry): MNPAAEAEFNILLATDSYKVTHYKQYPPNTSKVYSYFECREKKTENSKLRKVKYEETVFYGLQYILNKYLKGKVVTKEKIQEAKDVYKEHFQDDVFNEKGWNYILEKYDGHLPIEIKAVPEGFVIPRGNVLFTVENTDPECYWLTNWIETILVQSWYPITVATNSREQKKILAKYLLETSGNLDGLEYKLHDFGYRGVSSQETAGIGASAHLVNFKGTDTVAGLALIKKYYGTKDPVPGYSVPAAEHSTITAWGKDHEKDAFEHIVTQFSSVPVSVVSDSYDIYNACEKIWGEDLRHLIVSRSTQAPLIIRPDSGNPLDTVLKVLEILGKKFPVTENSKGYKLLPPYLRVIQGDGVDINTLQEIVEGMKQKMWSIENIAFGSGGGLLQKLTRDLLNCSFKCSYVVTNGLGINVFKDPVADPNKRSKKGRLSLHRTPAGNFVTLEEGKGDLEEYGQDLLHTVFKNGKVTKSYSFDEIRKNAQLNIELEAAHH

HepG2 cells [3] = experiment: Cell counting kit-8 (CCK-8) cell viability assay in HepG2; type: cell-based, human; settings: HepG2, 48 hours treatment, read-out: CCK-8 assay in HepG2: IC50
Method: (§5) Cellc ount ing k it-8 (CCK-8) assa y
Cell vi ability was de termine d by ou r previ ous method9 usi ng the Cell Counting Kit-8 (CCK -8, Dojindo, Ja pa n). In hu man he pa tocellu lar carcinom a cell line HepG 2, cells were seede d in 96-well plate and starve d for ove r 12 h with se rum-free DMEM at 60~ 70% conf lue nc y, the n trea ted wit h com pounds or ve hicle for 24 h to 72 h accor ding to expe riment requi rement s. […]
(§6) 10 μl CCK-8 sol ution was adde d to the cul ture medium and inc ub ated at 37 °C for 1 h. Th e absor banc e at 450 nm (A450) was de tected by a pl ate reade r. Each e xperi ment w as carr ied out i n t riplic ate i n thr ee r eplic ate w ells.

Huh7-C cells = experiment: CCK-8 assay in stem-like human hepatoma cell line Huh7-C; type: cell-based; settings: Huh7-C, treated 60 h, read-out: CCK-8 assay in Huh7-C: IC50
Method: as §5
Cell vi ability was de termine d by ou r previ ous method9 usi ng the Cell Counting Kit-8 (CCK -8, […]
as §6

NAMPT [4] = molecular target: T1, NAMPT; experiment: Cellular thermal shift assay (CETSA / […]) in HepG2 cell lysate; type: binding; parameters: endogenous in cells; host or cells: HepG2
NAMPT [5] = molecular target: T1, NAMPT; experiment: Cellular thermal shift assay (CETSA / […]) in intact HepG2 cells; type: cell-based; parameters: endogenous in cells; host or cells: HepG2; settings: 62 °C
A549 cells = experiment: SRB assay in A549; type: cell-based, human; settings: Homo sapiens; A549, SRB, 10-fold concentration gradient; read-out: anti-proliferation IC50, initial screen
Method: as §1, §2, §3, §4

HCT116 cells = experiment: SRB assay in HCT116; type: cell-based; settings: Homo sapiens, HCT-116; HCT116, SRB, 10-fold concentration gradient; read-out: anti-proliferation IC50, initial screen
Method: as §1, §2, §3, §4

[6] = HepG2, 72 h, HepG2, second test, 2-fold concentration gradient, 72 hours, read-out: SRB assay in HepG2: IC50

O=C(/C=C/c1cccnc1)NCCCCC1CCN(C(=O)c2ccccc2)CC1 [FK866, reference compound]
IC50 (HepG2 cells [1]; [6]): 50 nM

O=S(=O)(c1ccc(NC(=S)NCc2cccnc2)cc1)N1CCNCC1 [MS2]
IC50 (NAMPT [2]; mean ± s.e.): 0.0845 ± 0.0075 µM

O=S(=O)(Nc1ccccc1)c1ccc(NC(=S)NCc2cccnc2)cc1 [MS3]
IC50 (NAMPT [2]; mean ± s.e.): 0.022 ± 0.0046 µM

CN1CCN(S(=O)(=O)c2ccc(NC(=S)NCc3cccnc3)cc2)CC1 [MS4]
IC50 (NAMPT [2]; mean ± s.e.): 0.0964 ± 0.0123 µM

CC(=O)N1CCN(S(=O)(=O)c2ccc(NC(=S)NCc3cccnc3)cc2)CC1 [MS5, 1-(4-((4-acetylpiperazin-1-yl)sulfonyl)phenyl)-3-(pyridin-3-ylmethyl)thiourea]
IC50 (NAMPT [2]; mean ± s.e.): 0.0405 ± 0.0018 µM

O=S(=O)(c1ccc(NC(=S)NCc2cccnc2)cc1)N1CCN(c2ccccn2)CC1 [MS6, 1-(4-((4-(pyridin-2-yl)piperazin-1-yl)sulfonyl)phenyl)-3-(pyridin-3-ylmethyl)thiourea]
IC50 (NAMPT [2]; mean ± s.e.): 0.0177 ± 0.0034 µM

O=S(=O)(c1ccc(NC(=S)NCc2cccnc2)cc1)N1CCN(Cc2ccccc2)CC1 [MS7, 1-(4-((4-benzylpiperazin-1-yl)sulfonyl)phenyl)-3-(pyridin-3-ylmethyl)thiourea]
IC50 (HepG2 cells [3]): 1270 nM
IC50 (HepG2 cells [3]; Homo sapiens, HepG2, 48 h): 1270 ± 158 nM
IC50 (HepG2 cells [1]; [6]): > 10000 nM
IC50 (Huh7-C cells): 1060 ± 248 nM
CETSA melting curve shift of NAMPT in cell lysate (NAMPT [4]; HepG2 cell lysate, 100 μM): large thermal shift
ITDRFCETSA for NAMPT in lysate, compared with MS1 (NAMPT [4]; cell lysate, 62 °C): shifted to the left
ITDRFCETSA of NAMPT in cell lysate versus intact cells (NAMPT [5]; lysate value relative to intact cells): no significant difference
ITDRFCETSA for NAMPT in intact cell, difference to MS1 (shifted to the right) (NAMPT [5]; intact cell): no less than 10 fold
IC50 (NAMPT [2]; mean ± s.e.): 0.00093 µM and 0.0009 µM

O=S(=O)(c1ccc(NC(=S)NCc2cccnc2)cc1)N1CCN(C2CCCCC2)CC1 [MS8, 1-(4-((4-cyclohexylpiperazin-1-yl)sulfonyl)phenyl)-3-(pyridin-3-ylmethyl)thiourea]
IC50 (NAMPT [2]; mean ± s.e.): 0.0142 ± 0.0024 µM

O=S(=O)(c1ccc(NC(=S)NCc2cccnc2)cc1)N1CCCC1 [MS9, 1-(pyridin-3-ylmethyl)-3-(4-(pyrrolidin-1-ylsulfonyl)phenyl)thiourea]
IC50 (NAMPT [2]; mean ± s.e.): 0.0439 ± 0.0024 µM

O=S(=O)(NCc1ccccc1)c1ccc(NC(=S)NCc2cccnc2)cc1 [MS10]
IC50 (NAMPT [2]; mean ± s.e.): 0.0196 ± 0.0002 µM

O=S(=O)(c1ccc(NC(=S)NCc2cccnc2)cc1)N1CCOCC1 [MS11]
IC50 (NAMPT [2]; mean ± s.e.): 0.0217 ± 0.0008 µM

CCOC(=O)N=C(NCc1cccnc1)Nc1ccc(S(=O)(=O)N2CCCCC2)cc1 [MS12]
IC50 (NAMPT [2]; values given in μM): > 166 µM

O=C(c1ccc(NC(=S)NCc2cccnc2)cc1)N1CCCCC1 [MS15]
IC50 (NAMPT [2]; mean ± s.e.): 0.0422 ± 0.0031 µM

O=C(Nc1ccc(S(=O)(=O)N2CCCCC2)cc1)OCc1cccnc1 [MS17]
IC50 (NAMPT [2]; mean ± s.e.): 0.0428 ± 0.004 µM

N=C(NCc1cccnc1)Nc1ccc(S(=O)(=O)N2CCCCC2)cc1 [MS18]
IC50 (NAMPT [2]; mean ± s.e.): 0.765 ± 0.0748 µM

N=C(NCc1cccnc1)Nc1ccc(C(=O)N2CCCCC2)cc1 [MS19]
IC50 (NAMPT [2]; mean ± s.e.): 14.5 ± 0.203 µM
IC50 (NAMPT [2]; values given in μM): 14.5 ± 0.2 µM

CCOC(=S)Nc1ccc(C(=O)N2CCCCC2)cc1 [MS20]
inhibition on NAMPT activity (in words) (NAMPT [2]): no NAMPT inhibition
IC50 (NAMPT [2]; values given in μM): > 150 µM

N#CN=C(NCc1cccnc1)Nc1ccc(S(=O)(=O)N2CCCC2)cc1 [MS21]
IC50 (NAMPT [2]; mean ± s.e.): 0.577 ± 0.0387 µM

O=S(=O)(c1ccc(NC(=S)NCc2cccnc2)cc1)N1CCN(Cc2ccc(F)cc2)CC1 [MS22]
IC50 (NAMPT [2]; mean ± s.e.): 0.012 ± 0.0015 µM

O=S(=O)(c1ccc(NC(=S)NCc2cccnc2)cc1)N1CCN(Cc2c(F)cccc2F)CC1 [MS23]
IC50 (HepG2 cells [1]; [6]): > 10000 nM
IC50 (HepG2 cells [1]; HepG2, HepG2, SRB, 10-fold concentration gradient, read-out: anti-proliferation IC50, initial screen): < 5000 nM
IC50 (A549 cells): < 5000 nM
IC50 (HCT116 cells): < 5000 nM
IC50 (NAMPT [2]; mean ± s.e.): 0.0099 ± 0.0012 µM

O=S(=O)(c1ccc(NC(=S)NCc2cccnc2)cc1)N1CCN(Cc2cccc(F)c2)CC1 [MS24]
IC50 (NAMPT [2]; mean ± s.e.): 0.0089 ± 0.0005 µM

O=S(=O)(c1ccc(NC(=S)NCc2cccnc2)cc1)N1CCN(Cc2ccccc2F)CC1 [MS25]
IC50 (NAMPT [2]; mean ± s.e.): 0.0123 ± 0.002 µM

Cc1ccc(CN2CCN(S(=O)(=O)c3ccc(NC(=S)NCc4cccnc4)cc3)CC2)cc1 [MS26]
IC50 (NAMPT [2]; mean ± s.e.): 0.0105 ± 0.002 µM
